In patent publication US20110207751A1, “HETEROCYCLIC COMPOUNDS AND USES AS ANTICANCER AGENTS” (priority 2010, published 2011):
Counter-ions that a name gives are not always drawn.

Key:
MAP-rich tubulin = assay: In vitro microtubule assembly assay; assay type: biochemical; settings: absorbance at 405 nm
Procedure: In vitro microtubule assembly assay. Microtubule polymerization was conducted in a 96-well microtiter plate with MAP-rich tubulin and various concentrations of COMPOUND O in a buffer containing 80 mM PIPES pH 6.9, 0.5 mM EGTA, 2 mM MgCl2, 1 mM GTP, 10% glycerol and 4% (v/v) dimethyl sulfoxide (DMSO) based on the HTS-tubulin polymerization assay kit protocol (Cytoskeleton). The increase in absorbance was measured at 405 nm a Beckman Multimode DTX880 plate reader at 37° C. and recorded every 60 seconds for 30 minutes.

[1] = system: HT1080 cells (human connective tissue cancer cell line); assay: Inhibition of cell proliferation, xCelligence cell index; assay type: cell-based; settings: HT-1080, 72 hr post compound treatment, read-out: calculated IC50
Excerpt: The biological activity of compounds disclosed herein was monitored and profiled using the Real-Time Cell Electronic Sensing (RT-CES®) system from ACEA Biosciences, Inc. The RT-CES system utilizes cell-substrate impedance technology to monitor cellular behavior inside tissue culture wells in a microtiter plate format. The technology features in the integration of molecular and cell biology with microelectronics and is based on the electronic detection of biological assay process. […]
(§1) For measurement of cell-substrate or cell-electrode impedance using RT-CES technology, microelectrodes having appropriate geometries are fabricated onto the bottom surfaces of microtiter plate or similar device, facing into the wells. […] When there are changes to the biological status of the cells analogue electronic readout signals are measured automatically and in real time, and are converted to digital signals for processing and for analysis. In a RT-CES system, a cell index (arbitrary representation of change in impedance) is automatically derived and provided based on measured electrode impedance values. […]
(§2) To quantify cell status based on the measured cell-electrode impedance, a parameter termed Cell Index is derived. Cell Index is a quantitative measure of the status of the cells in an electrode-containing well. […]

[2] = system: H1993 cells (human non-small cell lung cancer cell line); assay: as above; assay type: cell-based; settings: NCI-H1993, 72 hr post compound treatment, read-out: calculated IC50
[3] = system: H596 cells (human adenosquamous lung carcinoma cell line); assay: as above; assay type: cell-based; settings: NCI-H596, 72 hr post compound treatment, read-out: calculated IC50
Excerpt: (§3) The biological activity of compounds disclosed herein was monitored and profiled using the Real-Time Cell Electronic Sensing (RT-CES®) system from ACEA Biosciences, Inc. The RT-CES system utilizes cell-substrate impedance technology to monitor cellular behavior inside tissue culture wells in a microtiter plate format. The technology features in the integration of molecular and cell biology with microelectronics and is based on the electronic detection of biological assay process. The details of this cell electronic sensing technology and associated devices, systems and methods of use are described in U.S. Pat. No. 7,167,585; U.S. Pat. No. 7,468,255; PCT publication number WO 2004/010102; U.S. Pat. No. 7,470,533; and U.S. Pat. No. 7,459,303, each of which is incorporated herein by reference. Additional details of RT-CES technology are further disclosed in U.S. Pat. No. 7,468,255.
as §1, §2
(§4) H596 cells (human adenosquamous lung carcinoma cell line) were seeded into wells of 96 well E-plate devices (Roche) with an initial seeding density of 5000 cells per well and were pre-incubated in incubator under standard cell culture condition for about 24 hours. […] The cell status was monitored prior to and after the compound addition using xCelligence system (Roche). […]

[4] = system: B×PC3 cells (human pancreatic cancer cell line); assay: as above; assay type: cell-based; settings: 72 hr post compound treatment, read-out: calculated IC50
Excerpt: as §3, §1, §2
as §4, with “B×PC3” for “H596”, “pancreatic cancer” for “adenosquamous lung carcinoma”

For `CCc1ccc(Nc2nc(-c3c(C)nc4sccn34)cs2)cc1` [COMPOUND O, 2-(4-ethylphenyl)amino-4-(6-methylimidazo[2,1-b]thiazol-5-yl)-thiazole monohydrobromide], the “effect on tubulin polymerization” value (MAP-rich tubulin; 0.04 μM) was “no inhibition”, the “effect on tubulin polymerization, concentration dependence” value (MAP-rich tubulin; various concentrations) was “inhibited in a concentration-dependent manner” and the IC50 [1] was 7.63 nM. It also gave an IC50 [2] of 60.2 nM, an IC50 [3] of 37.9 nM and an IC50 [4] of 6.6 nM.

For `CC(=O)O[C@H]1C(=O)[C@@]2(C)[C@H]([C@H](OC(=O)c3ccccc3)[C@]3(O)C[C@H](OC(=O)[C@H](O)[C@@H](NC(=O)c4ccccc4)c4ccccc4)C(C)=C1C3(C)C)[C@]1(OC(C)=O)CO[C@@H]1C[C@@H]2O` [paclitaxel], the “effect on tubulin polymerization” value (MAP-rich tubulin; 5 μM) was “further enhanced compared to that of the negative control”, the IC50 [2] was 5.12 nM and the IC50 [3] was 12.5 nM. It also gave an IC50 [4] of 8.86 nM.

With `CC[C@]1(O)C[C@H]2CN(CCc3c([nH]c4ccccc34)[C@@](C(=O)OC)(c3cc4c(cc3OC)N(C=O)[C@H]3[C@@](O)(C(=O)OC)[C@H](OC(C)=O)[C@]5(CC)C=CCN6CC[C@]43[C@@H]65)C2)C1` [vincristine] the “inhibition of tubulin polymerization compared with control sample” value (MAP-rich tubulin; 5 μM) was “more than 50%”, the IC50 [1] was 2.01 nM and the IC50 [2] was 2.43 nM. For the same molecule, the IC50 [3] was 36.9 nM and the IC50 [4] was 4.06 nM.
